Reference: PubChem BioAssay AID504680 (Sanford-Burnham Center for Chemical Genomics, 2011)
Activity calls are given as the source filed them.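 How the source made its calls: active means IC50 below 100 µM in the TR-FRET assay, unless also active in the caspase-3 counter assay; inactive means the rest, including compounds also active in caspase-3.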

target: Caspase-3 (Homo sapiens) (UniProt P42574); experiment: inhibition of recombinant caspase-3 activity – biochemical, luminescence, Caspase-Glo 3/7, counter-screen for UBC13 polyubiquitin inhibitor project, SAR follow-up (AID 504680); conditions: recombinant caspase-3, Caspase-Glo luminescence, 60 min
Sequence (P42574 whole entry, looked up): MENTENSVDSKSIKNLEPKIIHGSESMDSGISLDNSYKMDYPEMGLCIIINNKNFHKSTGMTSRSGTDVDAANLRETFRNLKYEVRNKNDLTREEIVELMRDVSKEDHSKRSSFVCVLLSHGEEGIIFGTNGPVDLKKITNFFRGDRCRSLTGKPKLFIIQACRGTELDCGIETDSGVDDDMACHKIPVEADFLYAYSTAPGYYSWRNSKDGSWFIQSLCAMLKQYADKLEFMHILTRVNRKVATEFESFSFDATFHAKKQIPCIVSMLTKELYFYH

Compound | IC50
O=C(C1CCN(c2ncnc3c2nc2n3CCCCC2)CC1)N1CCC(Cc2ccccc2)CC1 | > 100 µM (inactive)
CN(C)CCCN(C(=O)c1ccc(S(=O)(=O)N(C)Cc2ccccc2)cc1)c1nc2cc3c(cc2s1)OCO3 | > 100 µM (inactive)
O=C(C1CCN(c2ncnc3c2nc2n3CCCCC2)CC1)N1CCN(Cc2ccccc2)CC1 | > 100 µM (inactive)
O=C(NCC1CCN(Cc2ccc(Cl)cc2)CC1)C1CCCN(c2ncnc3c2nc2n3CCCCC2)C1 (configuration not stated) | > 100 µM (inactive)
COc1cccc2sc(N(CCCN(C)C)C(=O)c3ccc(S(=O)(=O)N4CCc5ccccc5C4)cc3)nc12 | > 100 µM (inactive)
COc1cc2nc(N(CCCN(C)C)C(=O)c3ccc(S(=O)(=O)N4CCc5ccccc5C4)cc3)sc2cc1OC | > 100 µM (inactive)
CN(C)CCCN(C(=O)c1ccc2c(c1)CCCC2)c1nc2ccc(Cl)cc2s1 | > 100 µM (inactive)
O=C(C1CCN(c2ncnc3c2nc2n3CCCCC2)CC1)N1CCN(c2ccccn2)CC1 | > 100 µM (inactive)
O=C(NCCCN1CCCCC1)C1CCN(c2ncnc3c2nc2n3CCCCC2)CC1 | > 100 µM (inactive)
O=C(NCCCN1CCN(c2ccccc2)CC1)C1CCCN(c2ncnc3c2nc2n3CCCCC2)C1 (configuration not stated) | > 100 µM (inactive)
CN(C)CCCN(C(=O)c1ccc(S(=O)(=O)N2CCCCCC2)cc1)c1nc2cc3c(cc2s1)OCCO3 | > 100 µM (inactive)
CC1CCCC(C)N1CCCNC(=O)C1CCCN(c2ncnc3c2nc2n3CCCCC2)C1 (configuration not stated) | > 100 µM (inactive)
CN(C)CCCN(C(=O)c1ccc(S(=O)(=O)N2CCCC2)cc1)c1nc2ccc(Br)cc2s1 | > 100 µM (inactive)
Cc1ccc2nc(N(CCCN(C)C)C(=O)c3ccc4c(c3)CCCC4)sc2c1 | > 100 µM (inactive)
Cc1cc(C)c2sc(N(CCCN(C)C)C(=O)c3ccc(S(=O)(=O)N4CCc5ccccc5C4)cc3)nc2c1 | > 100 µM (inactive)
O=C(NCCCN1CCN(c2ccc(F)cc2)CC1)C1CCCN(c2ncnc3c2nc2n3CCCCC2)C1 (configuration not stated) | > 100 µM (inactive)
O=C(NCC1CCN(Cc2cccc(Cl)c2)CC1)C1CCCN(c2ncnc3c2nc2n3CCCCC2)C1 (configuration not stated) | > 100 µM (inactive)
CCC1CCCCN1CCCNC(=O)C1CCN(c2ncnc3c2nc2n3CCCCC2)CC1 (configuration not stated) | > 100 µM (inactive)
CCCN1CCN(C(=O)C2CCN(c3ncnc4c3nc3n4CCCCC3)CC2)CC1 | > 100 µM (inactive)

Compound | IC50
COc1ccc(C)c2sc(N(CCCN(C)C)C(=O)c3ccc(S(=O)(=O)N(C)C)cc3)nc12 | > 100 µM (inactive)
Cc1cc(C)c2sc(N(CCCN(C)C)C(=O)c3ccc(S(=O)(=O)N(C)Cc4ccccc4)cc3)nc2c1 | > 100 µM (inactive)
CCOC(=O)c1c(NC(=O)COc2ccccc2C#N)sc2c1CC(C)(C)NC2(C)C | > 100 µM (inactive)
CCN(Cc1ccccc1)S(=O)(=O)c1ccc(C(=O)N(CCCN(C)C)c2nc3cc(C)cc(C)c3s2)cc1 | > 100 µM (inactive)
CC1(C)Cc2c(sc(NC(=O)COc3ccc(Cl)cc3Cl)c2C(N)=O)C(C)(C)N1 | > 100 µM (inactive)
Cc1ccc(-c2oc3ncnc(N)c3c2-c2ccc(C)cc2)cc1 | > 100 µM (inactive)
CC1CC(C)CN(C(=O)C2CCN(c3ncnc4c3nc3n4CCCCC3)CC2)C1 (configuration not stated) | > 100 µM (inactive)
Cc1cc(C)c2sc(N(CCCN(C)C)C(=O)c3ccc(S(=O)(=O)N(C)C4CCCCC4)cc3)nc2c1 | > 100 µM (inactive)
O=C(C1CCN(c2ncnc3c2nc2n3CCCCC2)CC1)N1CCN(c2ccccc2)CC1 | > 100 µM (inactive)
Cc1ccc(C)c(CN2CCC(CNC(=O)C3CCCN(c4ncnc5c4nc4n5CCCCC4)C3)CC2)c1 (configuration not stated) | > 100 µM (inactive)
Cc1ccc2nc(N(CCCN(C)C)C(=O)c3ccc(S(=O)(=O)N4CCc5ccccc5C4)cc3)sc2c1 | > 100 µM (inactive)
O=C(c1ccco1)N1CCN(C(=O)C2CCN(c3ncnc4c3nc3n4CCCCC3)CC2)CC1 | > 100 µM (inactive)
CNCc1cc(Br)c(OCC(=O)Nc2ccccc2OC)c(OC)c1 | > 100 µM (inactive)
CN(C)CCCN(C(=O)c1ccc(S(=O)(=O)N2CCc3ccccc3C2)cc1)c1nc2ccc(F)cc2s1 | > 100 µM (inactive)
Cc1ccc(NC(=O)C2CCN(c3ncnc4c3nc3n4CCCCC3)CC2)cc1Cl | > 100 µM (inactive)
CN(C)CCCN(C(=O)c1ccc(S(=O)(=O)N2CCCCCC2)cc1)c1nc2ccc(Br)cc2s1 | > 100 µM (inactive)
COc1ccc(-c2oc3ncnc(N)c3c2-c2ccccc2)cc1 | > 100 µM (inactive)
Cc1ccccc1CN1CCC(CNC(=O)C2CCCN(c3ncnc4c3nc3n4CCCCC3)C2)CC1 (configuration not stated) | > 100 µM (inactive)
CCN(Cc1ccccc1)S(=O)(=O)c1ccc(C(=O)N(CCCN(C)C)c2nc3cc4c(cc3s2)OCCO4)cc1 | > 100 µM (inactive)

Results, then the compound that gave them:

IC50 | Compound
> 100 µM (inactive) | Cc1nc2ccccc2c(=O)n1NC(=O)c1ccc(OC(F)F)cc1
> 100 µM (inactive) | CN1CCN(CCCNC(=O)c2ccc(/C=C3\Oc4ccccc4N(Cc4ccc(Cl)cc4)C3=O)cc2)CC1
> 100 µM (inactive) | COC(=O)c1ccc(OCC(O)CN2CCN(CCN3C(=O)c4cccc5cccc(c45)C3=O)CC2)cc1 (configuration not stated)
> 100 µM (inactive) | COc1ccc(C(=O)Nn2c(C)nc3ccccc3c2=O)cc1
> 100 µM (inactive) | CCCOC(=O)c1ccc(NC(=O)CCCCCN2C(=O)c3ccccc3C2=O)cc1
> 100 µM (inactive) | Cc1ccc(OCC(O)CN2CCN(CCN3C(=O)c4cccc5cccc(c45)C3=O)CC2)c(C)c1 (configuration not stated)
> 100 µM (inactive) | O=C1c2cccc3cccc(c23)C(=O)N1CCN1CCN(CC(O)COc2ccccc2)CC1 (configuration not stated)
> 100 µM (inactive) | Cc1ccc(C)c(OCC(O)CN2CCN(CCN3C(=O)c4cccc5cccc(c45)C3=O)CC2)c1 (configuration not stated)
> 100 µM (inactive) | CC(=O)c1ccc(OCC(O)CN2CCN(CCN3C(=O)c4cccc5cccc(c45)C3=O)CC2)cc1 (configuration not stated)
> 100 µM (inactive) | O=C(CCCCCN1C(=O)c2ccccc2C1=O)NCc1ccco1
> 100 µM (inactive) | CCCCOC(=O)c1cccc(NC(=O)CCCCCN2C(=O)c3ccccc3C2=O)c1
> 100 µM (inactive) | COc1ccc(NC(=O)CCCCCN2C(=O)c3cccc([N+](=O)[O-])c3C2=O)cc1
> 100 µM (inactive) | COc1ccc(COCC(O)CN2CCC(CN3C(=O)c4cccc5cccc(c45)C3=O)CC2)cc1OC (configuration not stated)
> 100 µM (inactive) | CN(C)CCCN(C(=O)c1ccc(C(=O)c2ccccc2)cc1)c1nc2cc3c(cc2s1)OCO3
> 100 µM (inactive) | O=C(CCCCn1c(=O)c2ccccc2n(Cc2ccccc2)c1=O)NC1CCN(Cc2ccccc2)CC1
> 100 µM (inactive) | O=C(CCCCCN1C(=O)c2ccccc2C1=O)NCc1ccccc1
> 100 µM (inactive) | O=C(CCCCCN1C(=O)c2ccccc2C1=O)Nc1nc(C2CC2)cs1
> 100 µM (inactive) | COC(=O)C1=C(NC(=O)CCCCCN2C(=O)c3ccccc3C2=O)SC2CCCC12 (configuration not stated)
> 100 µM (inactive) | O=C(CCCCCN1C(=O)c2ccccc2C1=O)Nc1ccc(S(=O)(=O)Nc2ncccn2)cc1
> 100 µM (inactive) | O=C(CCCn1c(=O)c2ccccc2n(Cc2ccc(Cl)cc2)c1=O)NC1CCN(Cc2ccccc2)CC1
> 100 µM (inactive) | COc1ccc(CCNC(=O)CCCCCN2C(=O)c3ccccc3C2=O)cc1OC
> 100 µM (inactive) | COc1cccc(NC(=O)CCCCCN2C(=O)c3cccc([N+](=O)[O-])c3C2=O)c1

IC50 | Compound
> 100 µM (inactive) | O=C1c2cccc3cccc(c23)C(=O)N1CCN1CCN(CC(O)COc2ccc3ccccc3c2)CC1 (configuration not stated)
> 100 µM (inactive) | N#Cc1ccccc1Cn1c(=O)n(CCCC(=O)NC2CCN(Cc3ccccc3)CC2)c(=O)c2ccccc21
> 100 µM (inactive) | CCCCN(CC)S(=O)(=O)c1ccc(C(=O)N(CCCN(C)C)c2nc3cc(C)cc(C)c3s2)cc1
> 100 µM (inactive) | O=C(c1ccc(S(=O)(=O)N2CCCC2)cc1)N1CCC(CN2C(=O)c3cccc4cccc(c34)C2=O)CC1
> 100 µM (inactive) | COc1ccc2sc(N(CCCN(C)C)C(=O)c3ccc(S(=O)(=O)N(C)Cc4ccccc4)cc3)nc2c1
> 100 µM (inactive) | O=C1c2cccc3cccc(c23)C(=O)N1CC1CCN(CC(O)COc2ccc3ccccc3c2)CC1 (configuration not stated)
> 100 µM (inactive) | O=C(C1COc2ccccc2O1)N1CCN(CCN2C(=O)c3cccc4cccc(c34)C2=O)CC1 (configuration not stated)
> 100 µM (inactive) | O=C(CCCCCN1C(=O)c2cccc([N+](=O)[O-])c2C1=O)NCc1ccccc1
> 100 µM (inactive) | NNC(=O)c1ccc(CN2C(=O)c3cccc4cccc2c34)cc1
> 100 µM (inactive) | CCN(Cc1ccccc1)S(=O)(=O)c1ccc(C(=O)N(CCCN(C)C)c2nc3cc4c(cc3s2)OCO4)cc1
> 100 µM (inactive) | COc1ccccc1NC(=S)NC(=O)CCCCCN1C(=O)c2ccccc2C1=O
> 100 µM (inactive) | CCOc1ccc2nc(N(CCCN(C)C)C(=O)c3ccc(C(=O)c4ccccc4)cc3)sc2c1
> 100 µM (inactive) | O=C(CCCCCN1C(=O)c2cccc3cccc(c23)C1=O)NCc1cccnc1
> 100 µM (inactive) | C=CCc1ccccc1OCC(O)CN1CCN(CCN2C(=O)c3cccc4cccc(c34)C2=O)CC1 (configuration not stated)
> 100 µM (inactive) | Cc1cccc(OCC(O)CN2CCN(CCN3C(=O)c4cccc5cccc(c45)C3=O)CC2)c1C (configuration not stated)
> 100 µM (inactive) | O=C1c2cccc3cccc(c23)C(=O)N1CC1CCN(CC(O)COCc2ccc3c(c2)OCO3)CC1 (configuration not stated)
> 100 µM (inactive) | COCCOC(=O)c1ccc(NC(=O)CCCCCN2C(=O)c3ccccc3C2=O)cc1
> 100 µM (inactive) | O=C1c2cccc3cccc(c23)C(=O)N1CCN1CCN(CC(O)COc2ccc(Cl)cc2)CC1 (configuration not stated)
> 100 µM (inactive) | O=C1c2cccc3cccc(c23)N1Cc1ccc(F)cc1
> 100 µM (inactive) | CCOc1ccc(NC(=O)Cn2c(=O)n(CCCC(=O)NC3CCN(Cc4ccccc4)CC3)c(=O)c3ccccc32)cc1
> 100 µM (inactive) | CCOc1cccc2sc(N(CCCN(C)C)C(=O)c3ccc(S(=O)(=O)N(C)Cc4ccccc4)cc3)nc12
> 100 µM (inactive) | CC(NC(=O)CCCCCN1C(=O)c2ccccc2C1=O)c1nc(-c2ccccc2)no1 (configuration not stated)
